Measurements: ChEMBL document CHEMBL1158080, “Dehydrozingerone, chalcone, and isoeugenol analogues as in vitro anticancer agents” (J Nat Prod, 2006)
≈ marks a conversion by molar mass, not a printed value.

Assays:
Assay type in all cases: functional, cell-based
[1] = system: A549; assay: Cytotoxicity against human A549 cells after 2 days by sulforhodamine B assay; conditions: A549, 48 h
[2] = system: KB; assay: Cytotoxicity against human KB cells after 2 days by sulforhodamine B assay; conditions: 48 h
[3] = system: KB; assay: Cytotoxicity against multidrug-resistant human KB-VCR cells after 2 days by sulforhodamine B assay; conditions: 48 h

| Compound | IC50 [1] [µg/mL] | IC50 [2] [µg/mL] | IC50 [3] [µg/mL] |
| --- | --- | --- | --- |
| COc1ccc(/C=C/C(C)=O)cc1OC | 8 (≈ 38.8 µM) | 8.6 (≈ 41.7 µM) | 7.8 (≈ 37.8 µM) |
| COc1ccc(/C=C/C(C)=O)cc1O | > 10 | 10 (≈ 52 µM) | 8.2 (≈ 42.7 µM) |
| CC(=O)/C=C/c1cccc(F)c1O | 3 (≈ 16.7 µM) | 2.1 (≈ 11.7 µM) | 3 (≈ 16.7 µM) |
| COc1ccc(/C=C/C(=O)c2ccccc2)cc1O | 3.5 (≈ 13.8 µM) | 1 (≈ 3.93 µM) | 1 (≈ 3.93 µM) |
| CCOc1cccc(/C=C/C(C)=O)c1O | 2.3 (≈ 11.2 µM) | 2 (≈ 9.7 µM) | 1.9 (≈ 9.21 µM) |
| COc1ccc(/C=C/C(C)=O)c(O)c1 | 3.5 (≈ 18.2 µM) | 3.8 (≈ 19.8 µM) | 4 (≈ 20.8 µM) |
| COc1cccc(/C=C/C(=O)c2ccccc2)c1O | 0.6 (≈ 2.36 µM) | 2.4 (≈ 9.44 µM) | 1.3 (≈ 5.11 µM) |
| COc1ccc(/C=C/C(C)=O)cc1F | 5.5 (≈ 28.3 µM) | 4.3 (≈ 22.1 µM) | 5 (≈ 25.7 µM) |
| C=CCOc1ccc(/C=C/C)cc1OC |  | > 10 | > 10 |
| C/C=C/c1ccc(OCC=C(C)C)c(OC)c1 |  | > 10 | > 10 |
| C=CCOc1ccc(/C=C/C(C)=O)cc1OC | 5.8 (≈ 25 µM) | 6.8 (≈ 29.3 µM) | 5 (≈ 21.5 µM) |
| C/C=C/c1ccc(OCCC(C)C)c(OC)c1 |  | > 10 | > 10 |
| C/C=C/c1ccc(OCCC)c(OC)c1 |  | > 10 | > 10 |
| C/C=C/COc1ccc(/C=C/C)cc1OC |  | > 10 | > 10 |
| COc1cc(/C=C/C(C)=O)ccc1OCC=C(C)C | 3.8 (≈ 14.6 µM) | 5.7 (≈ 21.9 µM) | 3.5 (≈ 13.4 µM) |
| C/C=C/COc1ccc(/C=C/C(C)=O)cc1OC | 6.8 (≈ 27.6 µM) | 4.8 (≈ 19.5 µM) | 3.4 (≈ 13.8 µM) |
| COc1cc(/C=C/C(C)=O)ccc1OC/C=C(\C)CCC=C(C)C | 3.4 (≈ 10.4 µM) | 2.2 (≈ 6.7 µM) | 3.3 (≈ 10 µM) |
| CCOc1ccc(/C=C/C(C)=O)cc1OC | > 10 | 5.5 (≈ 25 µM) | 8 (≈ 36.3 µM) |
| CCOc1cc(/C=C/C(C)=O)ccc1O | 8.5 (≈ 41.2 µM) | 7.7 (≈ 37.3 µM) | 7.8 (≈ 37.8 µM) |
| COc1cc(/C=C/C(=O)c2ccccc2)ccc1O | 2.3 (≈ 9.04 µM) | 3.5 (≈ 13.8 µM) | 1.9 (≈ 7.47 µM) |
| CCCOc1ccc(/C=C/C(C)=O)cc1OC | 5.8 (≈ 24.8 µM) | 6.5 (≈ 27.7 µM) | 4.2 (≈ 17.9 µM) |
| COc1cc(/C=C/C(C)=O)ccc1OCCC(C)C | 7.2 (≈ 27.4 µM) | 3.6 (≈ 13.7 µM) | 3.2 (≈ 12.2 µM) |
| COc1ccc(/C=C/C(=O)c2ccccc2)c(O)c1 | 3.8 (≈ 14.9 µM) | 2 (≈ 7.87 µM) | 2 (≈ 7.87 µM) |
| COc1cc(/C=C/C(C)=O)ccc1OC/C=C(\C)CC/C=C(\C)CCC=C(C)C | 7.4 (≈ 18.7 µM) | 6.5 (≈ 16.4 µM) | 7.4 (≈ 18.7 µM) |
| C/C=C/c1ccc(OC/C=C(\C)CC/C=C(\C)CCC=C(C)C)c(OC)c1 |  | > 10 | > 10 |
| COc1cccc(/C=C/C(C)=O)c1O | 2.5 (≈ 13 µM) | 3.8 (≈ 19.8 µM) | 2 (≈ 10.4 µM) |
| COc1cc(/C=C/C(=O)CC(=O)/C=C/c2ccc(O)c(OC)c2)ccc1O [CURCUMIN] | 5.2 (≈ 14.1 µM) | 5.5 (≈ 14.9 µM) | 3.1 (≈ 8.42 µM) |
| COc1cc(/C=C/C(C)=O)ccc1O [DEHYDROZINGERONE] | > 10 | > 10 | > 10 |
| COc1cccc2c1C(=O)c1c(O)c3c(c(O)c1C2=O)C[C@@](O)(C(=O)CO)C[C@@H]3O[C@H]1C[C@H](N)[C@H](O)[C@H](C)O1 [DOXORUBICIN] | 0.1 (≈ 0.184 µM) | 0.1 (≈ 0.184 µM) | 2.7 (≈ 4.97 µM) |
| C/C=C/c1ccc(OC)c(OC)c1 [METHYLISOEUGENOL] |  | > 10 | > 10 |
